Legend:
[1] = test system: adipocyte model 3T3-L1; experiment: Cytotoxicity (MTT reagent); type: cell-based, mouse; conditions: HPH-15 1 μM, 10 μM or 50 μM, 24 hours
Experimental: (§1) It was examined whether using HPH-15 as a drug caused any cytotoxicity.
(§2) The myotube cell model L6-GLUT4myc, the liver cell model HepG2 cells, and the adipocyte model 3T3-L1 used in Example 1 were each seeded onto a 24-well plate (1×10^5 cells/well, […] of culture liquid) and cultured overnight. Then, a DMSO solution (1%) containing HPH-15 (final concentration: 1 μM, 10 μM or 50 μM) was added to the medium, and the cells were further cultured for 24 hours. As a control, only DMSO solution (1%) was added, and the cells were cultured for 24 hours in the same manner. Next, […] of MTT reagent (3-(4,5-dimethyl-2-thiazolyl)-2,5-diphenyl-2H-tetrazolium bromide: 1.1 mg/mL: Dojindo Laboratories) was added to each well, and the cells were further cultured for 4 hours. After collecting the precipitated crystals, the supernatant was removed and DMSO ([…]) was added to completely dissolve the crystals. Cytotoxicity was evaluated by measuring the absorbance (550 nm) of the solution and determining the number of viable cells.

[2] = test system: high-fat diet-induced obesity model mice; experiment: Organ weight in mouse; type: in vivo; conditions: HPH-15 100 mg/kg orally once a day 28 days; compared to olive oil
Experimental: The changes in organ weights when HPH-15 was administered were examined.
High-fat diet-induced obesity model mice were prepared in the same manner as in Example 7. Then, HPH-15 (10 mg/kg or 100 mg/kg, […]) dissolved in olive oil or metformin (300 mg/kg, […]) was orally administered once a day for 28 days. Olive oil alone was administered as a control. After 28 days of administration of each, the liver, muscle, subcutaneous fat, and epididymis of the high-fat diet-induced obesity model mice were excised and weighed.

[3] = test system: high-fat diet-induced obesity model mice; experiment: Blood glucose lowering effect in mouse; type: in vivo; conditions: HPH-15 10 mg/kg or 100 mg/kg orally once a day for 28 days, compared with metformin 300 mg/kg
Experimental: In Example 7, mice were used instead of the cells, which were used up to Example 6, to examine the blood glucose lowering effect of HPH-15.
Four-week-old […] mice (CLEA Japan, Inc.) were fed a high-fat diet HFD (CLEA Japan, Inc.) for two months to prepare high-fat diet-induced obesity model mice. Then, HPH-15 (10 mg/kg or 100 mg/kg, […]) dissolved in olive oil (Kenei Pharmaceutical Co., Ltd.) or metformin (300 mg/kg, […]) was orally administered once a day for 28 days. Olive oil alone was administered as a control. Body weight, random blood glucose levels, and fasting blood glucose levels were measured every 7 days using a blood glucose meter Glutest Aqua (Sanwa Kagaku Kenkyusho Co., Ltd.). Fasting blood glucose levels were measured after 12-hour fasting. Note that, during the drug administration period, the mice were fed the high-fat diet HFD. The results of random blood glucose levels (mg/dl) are shown in FIG. 7A, and the results of fasting blood glucose levels (mg/dl) are shown in FIG. 7B.

[4] = test system: liver cell model HepG2 cells; experiment: Cytotoxicity (MTT reagent); type: cell-based, human; conditions: HPH-15 1 μM, 10 μM or 50 μM, 24 hours
Experimental: as §1, §2

[5] = test system: adenosine monophosphate-activated protein kinase (AMPK); experiment: Activation of AMPK (p-AMPK/AMPK, Western blotting) in myotube cell model L6-GLUT4myc; type: cell-based, rat; conditions: HPH-15 at 1/200th the concentration of metformin (2 mM), 24 hours
Source text: (§3) The tissues involved in glucose uptake and glucose metabolism are mainly the muscle, the liver, and the fat. Thus, using a cell model of each tissue, the relationship between HPH-15 and activation of adenosine monophosphate-activated protein kinase (AMPK) was examined. Note that AMPK is known as a therapeutic target for diabetes. AMPK acts as an energy sensor, and when it detects a decrease in ATP serving as an intracellular energy source, it suppresses the synthesis of glucose, fats, and proteins and produces ATP. Exercise therapy for diabetes is based on this mechanism. Further, AMPK has been drawing attention as a factor that improves insulin resistance.
(§4) As a muscle cell model to be used, rat myoblast cell line L6-GLUT4myc (myoblasts expressing myc-tagged GLUT4) was cultured in a minimal essential medium a-MEM (10% FBS) and differentiated into myotubes. Differentiation into myotubes was performed by culturing L6-GLUT4 cells in a-MEM (10% FBS) and then changing the medium to a-MEM (2% FBS), followed by culturing for 6 days. Human HepG2 cell line was used as a liver cell model. As an adipocyte model to be used, mouse 3T3-L1 preadipocyte cell line was differentiated into adipocytes. Differentiation into adipocytes was performed as follows. […]
(§5) Next, bands of AMPK and p-AMPK were quantified using ImageJ to determine a ratio of activated AMPK relative to AMPK (p-AMPK/AMPK).

[6] = test system: adenosine monophosphate-activated protein kinase (AMPK); experiment: Activation of AMPK (p-AMPK/AMPK, Western blotting) in adipocyte model 3T3-L1; type: cell-based, mouse; conditions: 3T3-L1 adipocytes; HPH-15 at 1/200th the concentration of metformin (2 mM); 24 hours
Source text: as §3, §4, §5

**Q.** How did the “cytotoxicity (number of viable cells)” value [1] turn out when `CC(C)(C)SCCNC(=S)c1cccc(C(=S)NCCSC(C)(C)C)n1` [HPH-15] was run?
**A.** Its value is “no cytotoxicity was confirmed”.

**Q.** What about the “reduction of subcutaneous fat weight” value [2] of the same molecule?
**A.** The value was “approximately 50%”.

**Q.** And the “fasting blood glucose levels” value ([3]; 12-hour fasting)?
**A.** The value was “had the effect of lowering”.

**Q.** What about the “random blood glucose levels” value [3] of the same molecule?
**A.** Its value is “had the effect of lowering”.

**Q.** And the “cytotoxicity (number of viable cells)” value [4]?
**A.** Its value is “no cytotoxicity was confirmed”.

**Q.** What about the “AMPK activation (p-AMPK/AMPK) compared to when metformin was used” value [5] of the same molecule?
**A.** The value was “approximately 75%”.

**Q.** What about the “AMPK activation (p-AMPK/AMPK) compared to when metformin was used” value [6] of the same molecule?
**A.** The value was “approximately 170%”.

Source: US20260000655A1, “PHARMACEUTICAL COMPOSITION FOR USE IN PREVENTION OR TREATMENT OF LIFESTYLE-RELATED DISEASE” (priority 2022, published 2026)
